According to ChEMBL document CHEMBL4483862, “Open-source discovery of chemical leads for next-generation chemoprotective antimalarials” (2018):

Test system: Plasmodium berghei
Experiment: Luciferase/luciferin-expressing antifolate-resistant parasites were used to infect a culture of HepG2 cells that were pre-incubated with compounds. Infected hepatocytes emit light due to the luciferase reaction. Assay results are presented as the percent inhibition of light emission compared to control. […]
Assay type: functional
Settings: sporozoite; for IC90: read-out: LUCIFERASE INFECTION ASSAY - IC90

SMILES | IC90 | further results
CCNc1ccc(C(=O)Nc2ccc3nc(C)sc3c2)cc1[N+](=O)[O-] | > 10 µM | IC50 (HEPG2TOX_HILL_SLOPE 12, HEPG2TOX_R_SQUARED 0.881, PBLUC_HILL_SLOPE 13.1, PBLUC_R_SQUARED 0.554, read-out: LUCIFERASE INFECTION ASSAY - IC50): 8.97 µM
CCn1c2ccccc2c2cc([N+](=O)[O-])ccc21 | > 13.7 µM | IC50 (HEPG2TOX_HILL_SLOPE 12, HEPG2TOX_R_SQUARED 0.261, PBLUC_HILL_SLOPE 16.8, PBLUC_R_SQUARED 0.0444, read-out: LUCIFERASE INFECTION ASSAY - IC50): 13.7 µM
Cn1ncc2c(ON=C(N)c3ccc(C(C)(C)C)cc3)ncnc21 | 9.41 µM | IC50 (HEPG2TOX_HILL_SLOPE 12.1, HEPG2TOX_R_SQUARED 0.899, PBLUC_HILL_SLOPE 18.6, PBLUC_R_SQUARED 0.286, read-out: LUCIFERASE INFECTION ASSAY - IC50): 8.36 µM
Oc1cccc2c(NC(S)=Nc3ccc(OC(F)F)cc3)cccc12 | 5.27 µM | IC50 (HEPG2TOX_HILL_SLOPE 12, HEPG2TOX_R_SQUARED 0.725, PBLUC_HILL_SLOPE 8.83, PBLUC_R_SQUARED 0.0853, read-out: LUCIFERASE INFECTION ASSAY - IC50): 4.11 µM
Cc1ccc(C(C)C)c(OCCCNCCc2ccccc2)c1 | 9.99 µM | IC50 (HEPG2TOX_HILL_SLOPE 12.1, HEPG2TOX_R_SQUARED 0.387, PBLUC_HILL_SLOPE 24.3, PBLUC_R_SQUARED 0.56, read-out: LUCIFERASE INFECTION ASSAY - IC50): 9.13 µM
O=C(Nc1nc2ccc(SC(F)F)cc2s1)c1ccc(Cl)nc1 | > 10 µM | IC50 (HEPG2TOX_HILL_SLOPE 12.1, HEPG2TOX_R_SQUARED 0.0104, read-out: LUCIFERASE INFECTION ASSAY - IC50): > 10 µM
CS(=O)(=O)c1cccc(S(=O)(=O)Oc2ccc(C34CC5CC(CC(C5)C3)C4)cc2)c1 | > 10 µM | IC50 (HEPG2TOX_HILL_SLOPE 12.1, HEPG2TOX_R_SQUARED 0.709, PBLUC_HILL_SLOPE 2.69, PBLUC_R_SQUARED 0.465, read-out: LUCIFERASE INFECTION ASSAY - IC50): 4.49 µM
CC(=O)c1ccc(-c2cnc(N)c(-c3cccc(N(C)C)c3)c2)s1 | 4.08 µM | IC50 (HEPG2TOX_HILL_SLOPE 12.1, HEPG2TOX_R_SQUARED 0.413, PBLUC_HILL_SLOPE 8.96, PBLUC_R_SQUARED 0.727, read-out: LUCIFERASE INFECTION ASSAY - IC50): 3.19 µM
O=C(Nc1ccccc1)Nc1ccc(Cl)c(Cl)c1 | 9.61 µM | IC50 (HEPG2TOX_HILL_SLOPE 12, HEPG2TOX_R_SQUARED 0.666, PBLUC_HILL_SLOPE 4.82, PBLUC_R_SQUARED 0.734, read-out: LUCIFERASE INFECTION ASSAY - IC50): 6.09 µM
O=C(Cn1ncc(Cl)c(Cl)c1=O)Nc1cc(S(=O)(=O)N2CCOCC2)ccc1Cl | 3.74 µM | IC50 (HEPG2TOX_HILL_SLOPE 12.1, HEPG2TOX_R_SQUARED 0.84, PBLUC_HILL_SLOPE 14, PBLUC_R_SQUARED 0.266, read-out: LUCIFERASE INFECTION ASSAY - IC50): 3.2 µM
O=[N+]([O-])c1ccc(O)c(CNc2ncnc3sc4c(c23)CCCC4)c1 | 8.25 µM | IC50 (HEPG2TOX_HILL_SLOPE 12, HEPG2TOX_R_SQUARED 0.784, PBLUC_HILL_SLOPE 5.09, 13.1, PBLUC_R_SQUARED 0.860, 0.272, read-out: LUCIFERASE INFECTION ASSAY - IC50): 7.21 µM
O=C(Nc1nonc1-c1ccc(F)cc1)c1sc2ccccc2c1Cl | 7.47 µM | IC50 (HEPG2TOX_HILL_SLOPE 12, HEPG2TOX_R_SQUARED 0.71, PBLUC_HILL_SLOPE 5.14, PBLUC_R_SQUARED 0.171, read-out: LUCIFERASE INFECTION ASSAY - IC50): 4.87 µM
C=CCN(C(=O)/C(=C/c1ccccc1)n1nnnc1C)c1nc(-c2ccccc2)cs1 | 5.71 µM | IC50 (HEPG2TOX_HILL_SLOPE 12.1, HEPG2TOX_R_SQUARED 0.931, PBLUC_HILL_SLOPE 6.74, 7.08, PBLUC_R_SQUARED 0.881, 0.796, read-out: LUCIFERASE INFECTION ASSAY - IC50): 4.16 µM
O=C(c1[nH]nc2ccccc12)N1CCN(CCOc2ccc(Cl)cc2)CC1 | > 10 µM | IC50 (HEPG2TOX_HILL_SLOPE 12.2, HEPG2TOX_R_SQUARED 0.374, PBLUC_HILL_SLOPE 13.5, 22.4, PBLUC_R_SQUARED 0.492, 0.389, read-out: LUCIFERASE INFECTION ASSAY - IC50): 9.12 µM
N#C/C(=N\Nc1ccc(C(F)(F)F)cc1)S(=O)(=O)c1cccs1 | 8.89 µM | IC50 (HEPG2TOX_HILL_SLOPE 12.1, HEPG2TOX_R_SQUARED 0.95, PBLUC_HILL_SLOPE 4.11, PBLUC_R_SQUARED 0.238, read-out: LUCIFERASE INFECTION ASSAY - IC50): 5.21 µM
CN(C)S(=O)(=O)c1cccc(NC(=O)c2nc(Cl)c(Cl)c(Cl)c2Cl)c1 | > 10 µM | IC50 (HEPG2TOX_HILL_SLOPE 12.2, HEPG2TOX_R_SQUARED 0.865, PBLUC_HILL_SLOPE 2.73, PBLUC_R_SQUARED 0.48, read-out: LUCIFERASE INFECTION ASSAY - IC50): > 10 µM

SMILES | IC90 | further results
Cc1ccc(NC(=O)/C(=C/c2cccc(F)c2)n2nnnc2C)cc1S(=O)(=O)N1CCCCCC1 | 4.24 µM | IC50 (HEPG2TOX_HILL_SLOPE 12.2, HEPG2TOX_R_SQUARED 0.863, PBLUC_HILL_SLOPE 25.1, PBLUC_R_SQUARED 0.833, read-out: LUCIFERASE INFECTION ASSAY - IC50): 3.89 µM
CCC(C)CNc1cc(C(=O)Nc2cccc(OC)c2)cc(S(=O)(=O)N2CCCC2)c1 (configuration not stated) | > 7.41 µM | IC50 (HEPG2TOX_HILL_SLOPE 12.2, HEPG2TOX_R_SQUARED 0.774, PBLUC_HILL_SLOPE 2.54, PBLUC_R_SQUARED 0.165, read-out: LUCIFERASE INFECTION ASSAY - IC50): 5.57 µM
CN1/C(=C\C=N\c2cc(Cl)c([N+](=O)[O-])cc2O)C(C)(C)c2ccccc21 | > 10 µM | IC50 (HEPG2TOX_HILL_SLOPE 12.2, 11.0, HEPG2TOX_R_SQUARED 0.457, 0.953, PBLUC_HILL_SLOPE 3.42, PBLUC_R_SQUARED 0.319, read-out: LUCIFERASE INFECTION ASSAY - IC50): 5.58 µM
Clc1cccc(-c2cc3c(Nc4ccc5c(c4)OCCO5)nccc3[nH]2)c1 | > 10 µM | IC50 (HEPG2TOX_HILL_SLOPE 12.1, HEPG2TOX_R_SQUARED 0.71, PBLUC_HILL_SLOPE 1.15, PBLUC_R_SQUARED 0.766, read-out: LUCIFERASE INFECTION ASSAY - IC50): 1.75 µM
Cc1csc(NC(=O)Nc2ccc(C(F)(F)F)cc2)c1Cl | 4.43 µM | IC50 (HEPG2TOX_HILL_SLOPE 12, HEPG2TOX_R_SQUARED 0.807, PBLUC_HILL_SLOPE 11.1, PBLUC_R_SQUARED 0.14, read-out: LUCIFERASE INFECTION ASSAY - IC50): 3.63 µM
CCOc1ccccc1NC1=C(Cl)C(=O)c2ccccc2C1=O | 9.94 µM | IC50 (HEPG2TOX_HILL_SLOPE 12.2, HEPG2TOX_R_SQUARED 0.715, PBLUC_HILL_SLOPE 2.84, PBLUC_R_SQUARED 0.486, read-out: LUCIFERASE INFECTION ASSAY - IC50): 4.58 µM
CN(C)C(=O)c1ccc(-c2cc3cnc(Nc4cccc(O)c4)cc3n2Cc2ccccc2)cc1 | 9.88 µM | IC50 (HEPG2TOX_HILL_SLOPE 12, HEPG2TOX_R_SQUARED 0.529, PBLUC_HILL_SLOPE 3.22, PBLUC_R_SQUARED 0.748, read-out: LUCIFERASE INFECTION ASSAY - IC50): 4.99 µM
COc1cccc(N/N=C2\C=CC(=O)c3ncccc32)c1 | 3.47 µM | IC50 (HEPG2TOX_HILL_SLOPE 12.1, HEPG2TOX_R_SQUARED 0.589, PBLUC_HILL_SLOPE 8.94, PBLUC_R_SQUARED 0.612, read-out: LUCIFERASE INFECTION ASSAY - IC50): 2.71 µM
CC(C)(C)OC(=O)Nc1ccc(C(=O)Nc2cccc(S(=O)(=O)NC3CC3)c2)cc1 | 3.66 µM | IC50 (HEPG2TOX_HILL_SLOPE 12, HEPG2TOX_R_SQUARED 0.663, PBLUC_HILL_SLOPE 19.5, PBLUC_R_SQUARED 0.101, read-out: LUCIFERASE INFECTION ASSAY - IC50): 3.27 µM
C=C(C#N)CN1CCN(CC(=C)C#N)CC1 | 14.9 µM | IC50 (HEPG2TOX_HILL_SLOPE 11.9, HEPG2TOX_R_SQUARED 0.949, PBLUC_HILL_SLOPE 23.6, PBLUC_R_SQUARED 0.193, read-out: LUCIFERASE INFECTION ASSAY - IC50): 13.6 µM
CN(C)c1ccc(-c2cc3c(Nc4ccc5c(c4)OCO5)nccc3n2C)cc1 | 3.98 µM | IC50 (HEPG2TOX_HILL_SLOPE 12.1, HEPG2TOX_R_SQUARED 0.137, PBLUC_HILL_SLOPE 13.7, PBLUC_R_SQUARED 0.564, read-out: LUCIFERASE INFECTION ASSAY - IC50): 3.39 µM
COc1ccc(CCNC(=O)c2c(S)n(-c3ccc(C)cc3)c3cccc[n+]23)cc1 | 9.33 µM | IC50 (HEPG2TOX_HILL_SLOPE 12.1, HEPG2TOX_R_SQUARED 0.69, PBLUC_HILL_SLOPE 9.57, PBLUC_R_SQUARED 0.712, read-out: LUCIFERASE INFECTION ASSAY - IC50): 7.42 µM
CNc1snc(C)c1C(=O)OCc1ccc(-n2cccn2)cc1 | 1.04 µM | IC50 (HEPG2TOX_HILL_SLOPE 12.1, HEPG2TOX_R_SQUARED 0.465, PBLUC_HILL_SLOPE 2.29, PBLUC_R_SQUARED 0.748, read-out: LUCIFERASE INFECTION ASSAY - IC50): 0.4 µM
Cn1nc(-c2ccc(/C=N/NC(=O)c3ccc(Cl)cc3)s2)cc1C(F)(F)F | 3.23 µM | IC50 (HEPG2TOX_HILL_SLOPE 12, HEPG2TOX_R_SQUARED 0.148, PBLUC_HILL_SLOPE 12.7, PBLUC_R_SQUARED 0.63, read-out: LUCIFERASE INFECTION ASSAY - IC50): 2.72 µM
O=C(CSc1ncc(C(F)(F)F)cc1C(F)(F)F)Nc1cc(Cl)cc(Cl)c1 | > 7.35 µM | IC50 (HEPG2TOX_HILL_SLOPE 12.1, HEPG2TOX_R_SQUARED 0.84, PBLUC_HILL_SLOPE 0.731, PBLUC_R_SQUARED 0.558, read-out: LUCIFERASE INFECTION ASSAY - IC50): 1.53 µM
